The values that follow come from ChEMBL document CHEMBL4825663 (J Med Chem, 2021).

The subject of series [1] is MES-SA/Dx5. As to the kind of experiment: Selectivity index, ratio of EC50 for inhibition of P-gp (unknown origin) expressed in MES-SA/DX5 cells assessed as increase in paclitaxel-induced cytotoxicity in absence of compound to EC50 for inhibition of P-gp (unknown origin) expressed in MES-SA/DX5 cells assessed as increase in paclitaxel-induced cytotoxicity in presence of compound. In kind it is cell-based. As to conditions: Homo sapiens.

Series [2] in a line: Aqueous solubility of compound at neutral pH. The series is classed as physicochemical. The settings on record: aqueous solution.
Series [3] is described as follows: Apparent permeability from apical to basolateral side in MDCK-II cells after 120 mins by LC-MS/MS analysis. The settings on record: dog. In kind it is ADME, cell-based, Canis lupus familiaris.
For series [4], the target named is ATP-dependent translocase ABCB1 (Homo sapiens, UniProt P08183). Kind of series: Inhibition of paclitaxel stimulated- P-gp ATPase activity (unknown origin).
Chain of ATP-dependent translocase ABCB1 (P08183 whole entry): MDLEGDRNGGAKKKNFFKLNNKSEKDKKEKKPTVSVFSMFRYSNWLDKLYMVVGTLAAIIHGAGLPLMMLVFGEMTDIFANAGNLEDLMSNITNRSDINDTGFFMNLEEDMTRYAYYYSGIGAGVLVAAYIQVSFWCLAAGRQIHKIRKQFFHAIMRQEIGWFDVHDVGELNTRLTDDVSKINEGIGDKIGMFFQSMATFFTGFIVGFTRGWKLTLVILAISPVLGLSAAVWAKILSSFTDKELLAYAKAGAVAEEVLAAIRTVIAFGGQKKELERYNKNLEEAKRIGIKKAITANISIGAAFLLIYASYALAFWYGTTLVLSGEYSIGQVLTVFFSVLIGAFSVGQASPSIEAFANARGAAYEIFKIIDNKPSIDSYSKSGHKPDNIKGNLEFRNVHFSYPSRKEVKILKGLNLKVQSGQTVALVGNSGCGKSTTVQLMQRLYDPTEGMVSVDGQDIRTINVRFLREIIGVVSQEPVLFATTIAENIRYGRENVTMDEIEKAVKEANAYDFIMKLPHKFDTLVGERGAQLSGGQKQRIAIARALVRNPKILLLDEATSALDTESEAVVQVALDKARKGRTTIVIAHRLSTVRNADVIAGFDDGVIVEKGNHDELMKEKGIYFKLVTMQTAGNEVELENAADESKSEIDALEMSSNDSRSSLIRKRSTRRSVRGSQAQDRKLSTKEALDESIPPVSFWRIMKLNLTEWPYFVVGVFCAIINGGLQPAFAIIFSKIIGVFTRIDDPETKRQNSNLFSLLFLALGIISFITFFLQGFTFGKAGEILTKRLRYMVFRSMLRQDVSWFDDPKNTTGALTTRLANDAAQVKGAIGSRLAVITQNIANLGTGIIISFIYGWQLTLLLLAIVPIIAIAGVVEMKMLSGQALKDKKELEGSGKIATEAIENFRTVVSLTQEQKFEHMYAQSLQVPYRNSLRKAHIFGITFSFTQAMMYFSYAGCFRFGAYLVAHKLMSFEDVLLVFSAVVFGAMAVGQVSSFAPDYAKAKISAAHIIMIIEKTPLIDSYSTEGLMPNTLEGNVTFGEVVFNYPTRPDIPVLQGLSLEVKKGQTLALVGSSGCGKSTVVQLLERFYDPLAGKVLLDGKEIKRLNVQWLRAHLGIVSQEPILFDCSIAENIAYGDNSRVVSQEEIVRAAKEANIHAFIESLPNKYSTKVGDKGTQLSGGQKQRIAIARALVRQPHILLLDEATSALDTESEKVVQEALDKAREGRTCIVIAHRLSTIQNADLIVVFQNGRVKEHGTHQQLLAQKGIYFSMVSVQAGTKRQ
Series [5] in a line: Aqueous solubility of compound at pH 5.5. In kind it is physicochemical. As to conditions: aqueous solution.
The target of series [6] is T1, Broad substrate specificity ATP-binding cassette transporter ABCG2 (Homo sapiens, UniProt Q9UNQ0).
T1 sequence (Q9UNQ0 whole entry): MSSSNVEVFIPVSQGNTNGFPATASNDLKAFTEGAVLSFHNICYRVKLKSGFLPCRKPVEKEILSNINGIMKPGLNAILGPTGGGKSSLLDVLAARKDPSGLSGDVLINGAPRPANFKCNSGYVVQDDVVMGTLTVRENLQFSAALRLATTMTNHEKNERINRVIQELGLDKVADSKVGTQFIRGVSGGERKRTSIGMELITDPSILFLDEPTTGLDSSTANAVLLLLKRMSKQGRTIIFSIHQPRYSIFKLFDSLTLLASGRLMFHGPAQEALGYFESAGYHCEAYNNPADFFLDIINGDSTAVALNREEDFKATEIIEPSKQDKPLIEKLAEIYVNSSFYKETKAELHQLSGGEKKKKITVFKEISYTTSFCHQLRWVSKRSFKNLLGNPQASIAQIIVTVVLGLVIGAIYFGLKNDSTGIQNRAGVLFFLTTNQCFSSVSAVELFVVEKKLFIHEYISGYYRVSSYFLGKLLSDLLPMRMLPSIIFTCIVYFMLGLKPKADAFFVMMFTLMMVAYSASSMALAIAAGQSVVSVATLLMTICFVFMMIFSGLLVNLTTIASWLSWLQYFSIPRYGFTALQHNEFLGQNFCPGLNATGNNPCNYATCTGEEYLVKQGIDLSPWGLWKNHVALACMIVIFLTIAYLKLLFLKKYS
Kind of series: Inhibition of sulfasalazine-stimulated BCRP ATP ase activity (unknown origin).

In brackets after ≈: the same amount, converted by molar mass.

With `COc1cc2c(cc1OC)CN(CCc1ccc(-n3nnc(-c4cc(OC)c(OC)cc4NC(=O)c4cccc5cccnc45)n3)cc1)CC2`, the Ratio EC50 in series [1] stood at 4.3.

For the compound `COc1cc2c(cc1OC)CN(CCc1ccc(-n3nnc(-c4cc(OC)c(OC)cc4NC(=O)c4ccc5ccccc5n4)n3)cc1)CC2`, the Ratio EC50 in series [1] came to 2.7.

Take `COc1cc2c(cc1OC)CN(CCc1ccc(-n3nnc(-c4cc(OC)c(OC)cc4NC(=O)c4cc(=O)c5cc(F)ccc5o4)n3)cc1)CC2`: the Ratio EC50 in series [1] came to 39.3.

`COc1cc2c(cc1OC)CN(CCc1ccc(NC(=O)c3cccc4c(=O)c5cccc(OC)c5[nH]c34)cc1)CC2`: the solubility – broadly, how much of the substance goes into solution per volume – in series [2] amounted to 0.123 µg/mL (≈ 0.218 µM). In addition, the Papp A→B – broadly, how fast a substance crosses the layer from the apical side – at 2 h in series [3] was 0.1 ×10⁻⁶ cm/s.

As to `O[C@@H](COc1cccc2ncccc12)CN1CCN([C@@H]2c3ccccc3[C@@H]3[C@H](c4ccccc42)C3(F)F)CC1` [ZOSUQUIDAR], the Papp A→B at 2 h in series [3] was found to be 1.1 ×10⁻⁶ cm/s.

Consider `COc1cc2c(cc1OC)CN(CCc1ccc(-n3nnc(-c4cc(OC)c(OC)cc4NC(=O)c4cncc5ccccc45)n3)cc1)CC2`, for which the Ratio EC50 in series [1] was determined as 3.3.

In the case of `COc1cc2c(cc1OC)CN(CCc1ccc(-n3nnc(-c4cc(OC)c(OC)cc4NC(=O)c4cc5ccccc5cn4)n3)cc1)CC2`, the Ratio EC50 in series [1] stood at 3.5.

Take `COc1cc2c(cc1OC)CN(CCc1ccc(-n3nnc(-c4cc(OC)c(OC)cc4NC(=O)c4cc(=O)c5c(OC)cccc5o4)n3)cc1)CC2`: the Ratio EC50 in series [1] came out at 49.9.

Consider `COc1cc2c(cc1OC)CN(CCc1ccc(-n3nnc(-c4cc(OC)c(OC)cc4NC(=O)c4cccnc4)n3)cc1)CC2`, for which, in series [1], the Ratio EC50 is 3.

As for `COc1cc2c(cc1OC)CN(CCc1ccc(-n3nnc(-c4cc(OC)c(OC)cc4NC(=O)c4ccc5ccccc5c4)n3)cc1)CC2`, the Ratio EC50 in series [1] is 2.6.

As to `COc1cc2c(cc1OC)CN(CCc1ccc(-n3nnc(-c4cc(OC)c(OC)cc4NC(=O)c4coc5ccccc5c4=O)n3)cc1)CC2`, in series [1], the Ratio EC50 turned out to be 2.1.

Take `COc1cc2c(cc1OC)CN(CCc1ccc(-n3nnc(-c4cc(OC)c(OC)cc4NC(=O)c4ccoc4)n3)cc1)CC2`: the Ratio EC50 in series [1] stood at 3.5.

Take `COc1cc2c(cc1OC)CN(CCc1ccc(-n3nnc(-c4cc(OC)c(OC)cc4NC(=O)c4ccccc4)n3)cc1)CC2`: the Ratio EC50 in series [1] was determined as 3.4.

As to `COc1cc2c(cc1OC)CN(CCc1ccc(NC(=O)c3cc(OC)c(OC)cc3NC(=O)c3cnc4ccccc4c3)cc1)CC2`, the figures for the IC50 in series [4] and in series [6] were 32.7 nM and 183 nM, respectively. The compound further showed a solubility in series [5] of 2500 µg/mL (≈ 3870 µM). The Papp A→B at 2 h in series [3] came to 1.1 ×10⁻⁶ cm/s.

`COc1cc2c(cc1OC)CN(CCc1ccc(-n3nnc(-c4cc(OC)c(OC)cc4NC(=O)c4cnccn4)n3)cc1)CC2`: the Ratio EC50 in series [1] was 3.

Take `COc1cc2c(cc1OC)CN(CCc1ccc(-n3nnc(-c4cc(OC)c(OC)cc4NC(=O)c4cnc5ccccc5c4)n3)cc1)CC2`: the Ratio EC50 in series [1] stood at 20.3.

Regarding `COc1cc2c(cc1OC)CN(CCc1ccc(-n3nnc(-c4cc(OC)c(OC)cc4NC(=O)c4ccsc4)n3)cc1)CC2`, the Ratio EC50 in series [1] came to 4.5.

For the compound `COc1cc2c(cc1OC)CN(CCc1ccc(-n3nnc(-c4cc(OC)c(OC)cc4NC(=O)c4ccc(F)c(F)c4)n3)cc1)CC2`, the Ratio EC50 in series [1] was found to be 3.7.

As to `COc1cc2c(cc1OC)CN(CCc1ccc(-n3nnc(-c4cc(OC)c(OC)cc4NC(=O)c4cc(=O)c5cc(C)ccc5o4)n3)cc1)CC2`, the Ratio EC50 in series [1] worked out at 73.4.

As to `COc1cc2c(cc1OC)CN(CCc1ccc(-n3nnc(-c4cc(OC)c(OC)cc4NC(=O)c4nccc5ccccc45)n3)cc1)CC2`, in series [1], the Ratio EC50 amounted to 1.8.
